Converted amounts (≈) assume the structure as drawn. The source made the active and inactive calls. No cut-off for these calls is given here.
Legend:
[1] = Cytotoxicity against human RD cells assessed as reduction in cell viability after 3 days by MTT assay; format: cell-based
[2] = Cytotoxicity against human Hep2 cells assessed as reduction in cell viability after 3 days by MTT assay; format: cell-based; settings: HEp-2 cells
Enterovirus A71 [3] = assay: Antiviral activity against EV71 Xiangyang-Hubei-09 infected in human RD cells assessed as inhibition of virus-induced cytopathic effect by MTT dye based assay; format: functional, organism-based
[4] = Selectivity index, ratio of CC50 for human RD cells to EC50 for EV71 Xiangyang-Hubei-09 infected in human RD cells; format: toxicity, cell-based; settings: read-out: Ratio CC50/EC50
Coxsackievirus B3 [5] = assay: Antiviral activity against Coxsackievirus B3 (strain Nancy) infected in human HEP2 cells assessed as inhibition of virus-induced cytopathic effect by MTT dye based assay; format: functional, organism-based
[6] = Selectivity index, ratio of CC50 for human HEP2 cells to EC50 for Coxsackievirus B3 (strain Nancy) infected in human HEP cells; format: toxicity, cell-based; settings: HEp-2 cells, read-out: Ratio CC50/EC50
Enterovirus A71 [7] = assay: Antiviral activity against EV71 Xiangyang-Hubei-09 infected in human RD cells assessed as inhibition of virus-induced cytopathic effect at 16 ug/ml treated 1 hr post viral infection measured after 48 hrs by MTT dye based assay relative to control; format: functional; settings: Enterovirus A, Xiangyang-Hubei-09, RD
Coxsackievirus B3 [8] = assay: Antiviral activity against Coxsackievirus B3 (strain Nancy) infected in human HEP2 cells assessed as inhibition of virus-induced cytopathic effect at 16 ug/ml after 48 hrs by MTT dye based assay; format: functional, organism-based
Enterovirus A71 [9] = assay: Antiviral activity against EV71 Xiangyang-Hubei-09 infected in human RD cells assessed as alteration in viral cell morphology at 16 ug/ml after 48 hrs; format: functional, organism-based
[10] = Enterovirus A, Xiangyang-Hubei-09, RD, read-out: EC50
[11] = Enterovirus B, Nancy, HEp-2, read-out: EC50

Compound `CC[C@H](CCn1cncn1)c1ccccc1` has a CC50 at 72 h [1] of 99.8 µg/mL (≈ 464 µM) and a CC50 at 72 h [2] of 97.7 µg/mL (≈ 454 µM).

With `CCCC[C@H](CCn1cncn1)c1ccc(Cl)cc1` the CC50 at 72 h [1] was 20.3 µg/mL (≈ 73.1 µM) and the CC50 at 72 h [2] was 20.2 µg/mL (≈ 72.7 µM).

Work on `Cc1ccc([C@@H](CCn2cncn2)Cc2ccccc2)cc1` yielded a CC50 at 72 h [1] of 109 µg/mL (≈ 373 µM) and a CC50 at 72 h [2] of 83.3 µg/mL (≈ 286 µM).

`CC[C@H](CCn1cncn1)c1ccc(OC)cc1` gave a CC50 at 72 h [1] of 118 µg/mL (≈ 483 µM), a CC50 at 72 h [2] of 153 µg/mL (≈ 625 µM) and an EC50 (Enterovirus A71 [3]; [10]) of 15.9 µg/mL (≈ 64.8 µM). It also gave a selectivity ratio [4] of 7.4, an EC50 (Coxsackievirus B3 [5]; [11]) of 15.1 µg/mL (≈ 61.6 µM) and a selectivity ratio [6] of 10.2.

Work on `Cc1ccc([C@H](CCn2cncn2)Cc2ccccc2)cc1` yielded a CC50 at 72 h [1] of 117 µg/mL (≈ 402 µM), a CC50 at 72 h [2] of 152 µg/mL (≈ 522 µM) and an EC50 (Enterovirus A71 [3]; [10]) of 9.2 µg/mL (≈ 31.6 µM). It also gave a selectivity ratio [4] of 12.7, an EC50 (Coxsackievirus B3 [5]; [11]) of 13.6 µg/mL (≈ 46.7 µM) and a selectivity ratio [6] of 11.2.

`CCCC[C@H](CCn1cncn1)c1ccc(F)cc1` showed a CC50 at 72 h [1] of 35.2 µg/mL (≈ 135 µM) and a CC50 at 72 h [2] of 38.5 µg/mL (≈ 147 µM).

With `CC[C@@H](CCn1cncn1)c1ccc(OC)cc1` the CC50 at 72 h [1] was 115 µg/mL (≈ 469 µM), the CC50 at 72 h [2] was 146 µg/mL (≈ 596 µM) and the inhibition (Enterovirus A71 [3]) was “Dose-dependent effect”. The EC50 (Enterovirus A71 [3]; [10]) was 5.3 µg/mL (≈ 21.6 µM), the selectivity ratio [4] was 21.7 and the inhibition (Coxsackievirus B3 [5]) was “Dose-dependent effect”. It also gave an EC50 (Coxsackievirus B3 [5]; [11]) of 10.1 µg/mL (≈ 41.2 µM), a selectivity ratio [6] of 14.5 and an inhibition at 16 µg/mL (Enterovirus A71 [7]) of 88.1%. The inhibition (Coxsackievirus B3 [8]) was “Active” and the inhibition (Enterovirus A71 [9]) was “Active”.

For `CCCC[C@@H](CCn1cncn1)c1ccc(C)cc1`, the CC50 at 72 h [1] was 56.5 µg/mL (≈ 220 µM), the CC50 at 72 h [2] was 60.7 µg/mL (≈ 236 µM) and the EC50 (Enterovirus A71 [3]; rd) was “Not Active”. The EC50 (Coxsackievirus B3 [5]) was “Not Active”.

Work on `CC[C@@H](CCn1cncn1)c1ccc(Cl)cc1` yielded a CC50 at 72 h [1] of 55.3 µg/mL (≈ 221 µM), a CC50 at 72 h [2] of 55.1 µg/mL (≈ 221 µM) and an EC50 (Enterovirus A71 [3]; [10]) of 5.4 µg/mL (≈ 21.6 µM). The selectivity ratio [4] was 10.2, the EC50 (Coxsackievirus B3 [5]; [11]) was 10.5 µg/mL (≈ 42 µM) and the selectivity ratio [6] was 5.2.

`CCCC[C@H](CCn1cncn1)c1ccc(Cl)cc1Cl` showed a CC50 at 72 h [1] of 10.1 µg/mL (≈ 32.3 µM) and a CC50 at 72 h [2] of 13.4 µg/mL (≈ 42.9 µM).

Work on `CCC[C@H](CCn1cncn1)c1ccc(F)cc1` yielded a CC50 at 72 h [1] of 38.4 µg/mL (≈ 155 µM) and a CC50 at 72 h [2] of 39.3 µg/mL (≈ 159 µM).

For `Clc1ccc([C@H](CCn2cncn2)Cc2ccccc2)c(Cl)c1`, the CC50 at 72 h [1] was 1.9 µg/mL (≈ 5.49 µM) and the CC50 at 72 h [2] was 4.9 µg/mL (≈ 14.2 µM).

Compound `CCC[C@@H](CCn1cncn1)c1ccc(Cl)cc1` has a CC50 at 72 h [1] of 40.8 µg/mL (≈ 155 µM) and a CC50 at 72 h [2] of 36.6 µg/mL (≈ 139 µM).

Compound `CCCC[C@@H](CCn1cncn1)c1ccc(Cl)cc1Cl` has a CC50 at 72 h [1] of 1.9 µg/mL (≈ 6.08 µM) and a CC50 at 72 h [2] of 6.5 µg/mL (≈ 20.8 µM).

With `CCCC[C@@H](CCn1cncn1)c1ccccc1` the CC50 at 72 h [1] was 47.5 µg/mL (≈ 195 µM), the CC50 at 72 h [2] was 40.8 µg/mL (≈ 168 µM) and the EC50 (Enterovirus A71 [3]; rd) was “Not Active”. For the same compound, the EC50 (Coxsackievirus B3 [5]) was “Not Active”.

For `CC[C@H](CCn1cncn1)c1ccc(F)cc1`, the CC50 at 72 h [1] was 110 µg/mL (≈ 473 µM), the CC50 at 72 h [2] was 103 µg/mL (≈ 442 µM) and the EC50 (Enterovirus A71 [3]; rd) was “Not Active”. For the same compound, the EC50 (Coxsackievirus B3 [5]) was “Not Active”.

With `c1ccc(C(CCn2cncn2)C2CCCCC2)cc1` (single isomer, unassigned; 39) the CC50 at 72 h [1] was 11.8 µg/mL (≈ 43.8 µM), the CC50 at 72 h [2] was 24.8 µg/mL (≈ 92.1 µM) and the EC50 (Enterovirus A71 [3]; rd) was “Not Active”. It also gave an EC50 (Coxsackievirus B3 [5]; [11]) of 5.1 µg/mL (≈ 18.9 µM) and a selectivity ratio [6] of 4.9.

Compound `CCCC[C@H](CCn1cncn1)c1ccccc1` has a CC50 at 72 h [1] of 48.3 µg/mL (≈ 198 µM), a CC50 at 72 h [2] of 50.2 µg/mL (≈ 206 µM) and an EC50 (Enterovirus A71 [3]; [10]) of 12.1 µg/mL (≈ 49.7 µM). It also gave a selectivity ratio [4] of 4, an EC50 (Coxsackievirus B3 [5]; [11]) of 10.4 µg/mL (≈ 42.7 µM) and a selectivity ratio [6] of 4.8.

With `CCC[C@H](CCn1cncn1)c1ccc(OC)cc1` the CC50 at 72 h [1] was 59.3 µg/mL (≈ 229 µM) and the CC50 at 72 h [2] was 59.6 µg/mL (≈ 230 µM).

For `CC[C@H](CCn1cncn1)c1ccc(C)cc1`, the CC50 at 72 h [1] was 85.2 µg/mL (≈ 372 µM), the CC50 at 72 h [2] was 75.2 µg/mL (≈ 328 µM) and the EC50 (Enterovirus A71 [3]; [10]) was 6.6 µg/mL (≈ 28.8 µM). For the same compound, the selectivity ratio [4] was 12.9, the EC50 (Coxsackievirus B3 [5]; [11]) was 12.1 µg/mL (≈ 52.8 µM) and the selectivity ratio [6] was 6.2.

For `CCCC[C@@H](CCn1cncn1)c1ccc(Cl)cc1`, the CC50 at 72 h [1] was 18.7 µg/mL (≈ 67.3 µM) and the CC50 at 72 h [2] was 17 µg/mL (≈ 61.2 µM).

With `CCC[C@H](CCn1cncn1)c1ccc(C)cc1` the CC50 at 72 h [1] was 47.2 µg/mL (≈ 194 µM) and the CC50 at 72 h [2] was 45.7 µg/mL (≈ 188 µM).

From ChEMBL document CHEMBL4130414, “Asymmetric synthesis of novel triazole derivatives and their in vitro antiviral activity and mechanism of action” (Eur J Med Chem, 2017)
